# Reference: patent US20110160081A1, “FUNCTIONAL COMPLEMENTATION ASSAY FOR DEFINED GPCR OLIGOMERS” (priority 2008, published 2011)
# Assays:
# [1] = system: endogenous purinergic receptors; assay: Aequorin assay, endogenous receptors in AEQ cells; type: cell-based
# From the text: To enable isolation of the signaling of the D2R from endogenous G proteins, and to control each of the components of the signaling complex, Flp-In 1-Rex-293 cells were engineered to stably express aequorin (AEQ cells) (see Example 1). Aequorin produces luminescence in a calcium-dependent manner in the presence of the substrate coelenterazine (23, 24), and it has been used to create a sensitive luminescence readout for GPCR-mediated PLC activation (25). In these cells, endogenous muscarinic or purinergic receptors signaled robustly via endogenous Gq, resulting in strong agonist-induced (ACH and ATP, respectively) luminescence signals (FIG. 7A).
# [2] = system: WT D2R coexpressed with D2/D4-Gqi5; assay: Aequorin functional complementation assay, WT D2R as protomer A with D2/D4-Gqi5 as protomer B; type: cell-based, human; conditions: L745,870 1 μM; agonist quinpirole; n=9
# From the text: (§1) The signals were further normalized according to Flag tagged D2R expression level. To normalize for different levels of surface expression levels of the Flag-D2R-Gqi5 mutant constructs, the Emax at each expression level (FIG. 12F) was plotted as a function of different levels of expression of Flag-tagged wt D2R-Gqi5, the expression of which was controlled by varying the time after tetracycline induction (FIG. 12A). The level of Myc-D2R remained essentially unchanged (FIG. 12B). The standard curve was fit to a 1 site rectangular hyperbola using nonlinear regression in GraphPad Prism 4.0 (GraphPad Software Inc., La Jolla, Calif.) (FIG. 12G). The luminescence response of the various Flag-D2R-Gqi5 constructs was normalized using this standard curve to account for the effects of different expression levels, with activation of 1 defined as that observed after 12 hours of tetracycline induction of WT D2R-Gqi5. The Flag detection was approximately 5-fold more sensitive than that of Myc; thus, the excess of Myc-tagged protomer A, which cannot signal on its own, ensures that normalization based on surface expression of the Flag-tagged Gqi5-fused protomer B accurately reflects the productive signaling entities, each of which must contain a protomer A and a protomer B.
# [3] = target: T1, SSTR5 coexpressed with D114A-Gqi5 (Homo sapiens, UniProt P35346); type: cell-based
# T1 construct: signal peptide (N); expressed in transfected cells; host or cells: AEQ cells (Flp-in T-rex 293 with aequorin)
# T1 sequence (P35346 whole entry, stated change not applied): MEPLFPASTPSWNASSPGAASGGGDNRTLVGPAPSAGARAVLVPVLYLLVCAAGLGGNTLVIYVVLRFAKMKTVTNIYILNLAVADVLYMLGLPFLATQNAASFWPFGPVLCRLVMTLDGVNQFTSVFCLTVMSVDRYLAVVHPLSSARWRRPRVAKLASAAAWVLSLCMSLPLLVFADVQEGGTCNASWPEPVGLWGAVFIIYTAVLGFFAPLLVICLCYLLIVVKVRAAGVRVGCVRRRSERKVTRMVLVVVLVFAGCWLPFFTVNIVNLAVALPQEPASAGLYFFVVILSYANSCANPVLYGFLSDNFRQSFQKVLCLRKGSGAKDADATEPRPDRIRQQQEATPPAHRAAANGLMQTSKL
# T1 sequence (P14416 with tags, fused parts or gaps isoform P14416-2 D114A partner): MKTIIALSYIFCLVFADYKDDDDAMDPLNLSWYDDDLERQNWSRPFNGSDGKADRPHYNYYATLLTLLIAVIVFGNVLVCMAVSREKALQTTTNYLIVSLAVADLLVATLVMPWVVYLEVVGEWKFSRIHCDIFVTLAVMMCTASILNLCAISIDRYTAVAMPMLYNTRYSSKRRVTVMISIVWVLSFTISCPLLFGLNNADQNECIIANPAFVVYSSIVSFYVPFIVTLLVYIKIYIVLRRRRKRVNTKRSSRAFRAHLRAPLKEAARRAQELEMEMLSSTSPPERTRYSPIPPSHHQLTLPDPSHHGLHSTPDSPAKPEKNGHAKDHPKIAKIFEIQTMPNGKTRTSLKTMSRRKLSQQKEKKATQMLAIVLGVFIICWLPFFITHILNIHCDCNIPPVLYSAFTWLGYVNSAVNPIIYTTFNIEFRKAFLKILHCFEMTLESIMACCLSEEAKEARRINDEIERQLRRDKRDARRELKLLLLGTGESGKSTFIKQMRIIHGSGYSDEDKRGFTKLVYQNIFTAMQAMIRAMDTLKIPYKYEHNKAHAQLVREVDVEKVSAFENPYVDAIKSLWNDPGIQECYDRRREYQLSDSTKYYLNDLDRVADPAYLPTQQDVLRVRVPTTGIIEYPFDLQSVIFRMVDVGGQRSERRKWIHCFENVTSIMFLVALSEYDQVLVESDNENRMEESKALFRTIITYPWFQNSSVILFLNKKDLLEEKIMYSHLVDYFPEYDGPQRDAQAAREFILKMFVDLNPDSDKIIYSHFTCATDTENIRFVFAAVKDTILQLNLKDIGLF
# [4] = target: T2, SSTR5 coexpressed with D2R-Gqi5 (Homo sapiens, UniProt P14416+P35346); type: cell-based
# T2 construct: signal peptide (N); expressed in transfected cells; host or cells: AEQ cells (Flp-in T-rex 293 with aequorin)
# T2 sequence (P35346 whole entry): as the sequence (P35346 whole entry, stated change not applied) above
# T2 sequence (P14416 with tags, fused parts or gaps isoform P14416-2): as the sequence (P14416 with tags, fused parts or gaps isoform P14416-2 D114A partner) above, with A138D counted along it
# [5] = target: T3, D2R coexpressed with free Gqi5 (Homo sapiens, UniProt P14416); type: cell-based; conditions: pertussis toxin 100 ng/ml 16-24 hours
# T3 construct: signal peptide (N); expressed in transfected cells; host or cells: Flp-in T-rex 293 cells stably expressing aequorin
# T3 sequence (P14416 with tags, fused parts or gaps isoform P14416-2): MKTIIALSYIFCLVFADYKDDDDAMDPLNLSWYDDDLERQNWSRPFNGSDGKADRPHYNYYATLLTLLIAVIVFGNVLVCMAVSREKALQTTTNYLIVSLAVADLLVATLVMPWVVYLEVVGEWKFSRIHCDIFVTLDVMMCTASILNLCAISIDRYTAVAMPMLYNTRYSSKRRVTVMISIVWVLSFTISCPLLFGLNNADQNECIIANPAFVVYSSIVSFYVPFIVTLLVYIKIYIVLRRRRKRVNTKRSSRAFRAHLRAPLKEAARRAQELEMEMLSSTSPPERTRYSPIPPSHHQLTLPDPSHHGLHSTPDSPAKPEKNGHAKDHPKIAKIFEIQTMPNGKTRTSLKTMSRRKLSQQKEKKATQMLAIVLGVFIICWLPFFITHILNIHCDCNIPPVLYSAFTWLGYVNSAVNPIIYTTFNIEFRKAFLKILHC
# [6] = target: T4, D2R coexpressed with D2-Gqi5 (Homo sapiens, UniProt P14416); assay: Aequorin functional complementation assay, D2R coexpressed with D2R-Gqi5; type: cell-based; conditions: pertussis toxin 100 ng/ml 16-24 hours
# T4 construct: signal peptide (N); expressed in transfected cells; host or cells: Flp-in T-rex 293 cells stably expressing aequorin
# T4 sequence (P14416 with tags, fused parts or gaps isoform P14416-2): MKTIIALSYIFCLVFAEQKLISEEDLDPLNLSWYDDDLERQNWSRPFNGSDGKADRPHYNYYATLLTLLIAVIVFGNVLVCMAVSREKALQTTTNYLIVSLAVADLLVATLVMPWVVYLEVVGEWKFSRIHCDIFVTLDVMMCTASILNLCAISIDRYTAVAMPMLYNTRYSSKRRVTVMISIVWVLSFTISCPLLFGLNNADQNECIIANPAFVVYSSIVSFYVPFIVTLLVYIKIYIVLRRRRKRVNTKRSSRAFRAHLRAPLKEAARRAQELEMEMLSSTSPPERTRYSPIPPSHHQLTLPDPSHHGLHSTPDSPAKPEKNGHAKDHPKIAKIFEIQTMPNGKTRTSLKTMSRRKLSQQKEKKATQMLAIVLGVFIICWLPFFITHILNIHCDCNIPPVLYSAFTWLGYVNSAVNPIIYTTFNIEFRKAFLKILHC
# T4 sequence (P14416 with tags, fused parts or gaps isoform P14416-2): as the sequence (P14416 with tags, fused parts or gaps isoform P14416-2 D114A partner) above, with A138D counted along it
# From the text: as §1, with “B. […]” for “B.”
molecule,measurement,setting,value
Nc1ncnc2c1ncn2[C@@H]1O[C@H](COP(=O)(O)OP(=O)(O)OP(=O)(O)O)[C@@H](O)[C@H]1O [ATP],agonist-induced luminescence signal via endogenous Gq,[1],strong
"Cl.Cl.Cl.Clc1ccc(N2CCN(Cc3c[nH]c4ncccc34)CC2)cc1 [L745,870, 3-(4-[4-Chlorophenyl]piperazin-1-yl)-methyl-1H-pyrrolo[2,3-b]pyridine trihydrochloride]","maximal activation, % of that observed for D2R coexpressed with WT D2R-Gqi5",[2],156.7±7.3%
CCN1CCCC1CNC(=O)c1cc(S(N)(=O)=O)ccc1OC (centres unmarked) [sulpiride],effect on SSTR5 activation (luminescence readout),[3],without effect
same,enhancement of potency of somatostatin by sulpiride relative to quinpirole,[4]; D2R inverse agonist sulpiride versus agonist quinpirole,about 6 fold
same,effect on SSTR5 activation (luminescence readout),[4]; coadministration of 1 μM with somatostatin,enhanced
same,shift in the SST curve,"[4]; in presence of compound, data not shown",full shift
pertussis toxin,effect of PTX on increase in luminescence,[5],unaffected
same,effect of pertussis toxin treatment on activation,[6],lack of effect
